Assay results: the supplement of paper PMC10307832

Assays:
Assay in all cases: relative viability (nuclei count vs DMSO), 5 days (fraction); higher = more cells survive
NCI-H2087 = system: NCI-H2087
How it was run: (§1)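 The day after seeding in 1536-well plates, lung cancer cell lines were treated by pin tool with a single drug, or with a fixed anchor-drug dose together with five library-drug doses (not always all listed) in √10 steps. After 5 days, a combined fix-and-stain solution (final 0.05% Triton X-100, 1% formaldehyde, 1 ug/ml Hoechst) was added. Nuclei counted on 4× images gave relative viability as treated counts over vehicle counts, reported as the median of duplicate plates.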

LU99A = system: LU99A
How it was run: as §1

NCI-H1734 = system: NCI-H1734
How it was run: as §1

RERF-LC-KJ = system: RERF-LC-KJ
How it was run: as §1

NCI-H3122 = system: NCI-H3122
How it was run: as §1

CAL-12T = system: CAL-12T
How it was run: as §1

LOU-NH91 = system: LOU-NH91
How it was run: as §1

ChaGo-K-1 = system: ChaGo-K-1
How it was run: as §1

NCI-H2228 = system: NCI-H2228
How it was run: as §1

NCI-H2405 = system: NCI-H2405
How it was run: as §1

EPLC-272H = system: EPLC-272H
How it was run: as §1

NCI-H1793 = system: NCI-H1793
How it was run: as §1

HCC-78 = system: HCC-78
How it was run: as §1

LC-2-ad = system: LC-2-ad
How it was run: as §1

NCI-H1755 = system: NCI-H1755
How it was run: as §1

NCI-H1944 = system: NCI-H1944
How it was run: as §1

NCI-H460 = system: NCI-H460
How it was run: as §1

UMC-11 = system: UMC-11
How it was run: as §1

HCC-366 = system: HCC-366
How it was run: as §1

NCI-H2170 = system: NCI-H2170
How it was run: as §1

PC-3 [JPC-3] = system: PC-3 [JPC-3]
How it was run: as §1

NCI-H1395 = system: NCI-H1395
How it was run: as §1

NCI-H1651 = system: NCI-H1651
How it was run: as §1

## C[C@@H]1CN(CC(=O)Nc2ccc3c(c2)Cc2cccc(-c4cc(=O)cc(N5CCOCC5)o4)c2S3)C[C@H](C)O1 + Nc1nc2[nH]cc(CCc3ccc(C(=O)N[C@@H](CCC(=O)O)C(=O)O)cc3)c2c(=O)[nH]1 [Pemetrexed] (partner 0.2 µM)
NCI-H2087; first compound 0.04 µM
  relative viability: 0.676
NCI-H2087; first compound 0.1265 µM
  relative viability: 0.668
NCI-H2087; first compound 0.4 µM
  relative viability: 0.677
NCI-H2087; first compound 4 µM
  relative viability: 0.621
LU99A; first compound 0.04 µM
  relative viability: 0.184
LU99A; first compound 0.1265 µM
  relative viability: 0.15
LU99A; first compound 0.4 µM
  relative viability: 0.21
LU99A; first compound 4 µM
  relative viability: 0.222
NCI-H1734; first compound 0.04 µM
  relative viability: 0.424
NCI-H1734; first compound 0.1265 µM
  relative viability: 0.405
NCI-H1734; first compound 0.4 µM
  relative viability: 0.386
NCI-H1734; first compound 4 µM
  relative viability: 0.398
RERF-LC-KJ; first compound 0.04 µM
  relative viability: 0.521
RERF-LC-KJ; first compound 0.1265 µM
  relative viability: 0.465
RERF-LC-KJ; first compound 0.4 µM
  relative viability: 0.461
RERF-LC-KJ; first compound 4 µM
  relative viability: 0.443
NCI-H3122; first compound 0.04 µM
  relative viability: 0.192
NCI-H3122; first compound 0.1265 µM
  relative viability: 0.193
NCI-H3122; first compound 0.4 µM
  relative viability: 0.192
NCI-H3122; first compound 4 µM
  relative viability: 0.183
CAL-12T; first compound 0.04 µM
  relative viability: 1.27
CAL-12T; first compound 0.1265 µM
  relative viability: 1.21
CAL-12T; first compound 0.4 µM
  relative viability: 1.08
CAL-12T; first compound 4 µM
  relative viability: 0.428
LOU-NH91; first compound 0.04 µM
  relative viability: 0.339
LOU-NH91; first compound 0.1265 µM
  relative viability: 0.367
LOU-NH91; first compound 0.4 µM
  relative viability: 0.36
LOU-NH91; first compound 4 µM
  relative viability: 0.329
ChaGo-K-1; first compound 0.04 µM
  relative viability: 0.24
ChaGo-K-1; first compound 0.1265 µM
  relative viability: 0.245
ChaGo-K-1; first compound 0.4 µM
  relative viability: 0.252
ChaGo-K-1; first compound 4 µM
  relative viability: 0.226
NCI-H2228; first compound 0.04 µM
  relative viability: 0.333
NCI-H2228; first compound 0.1265 µM
  relative viability: 0.351
NCI-H2228; first compound 0.4 µM
  relative viability: 0.34
NCI-H2228; first compound 4 µM
  relative viability: 0.226
NCI-H2405; first compound 0.04 µM
  relative viability: 1.11
NCI-H2405; first compound 0.1265 µM
  relative viability: 1.01
NCI-H2405; first compound 0.4 µM
  relative viability: 1.04
NCI-H2405; first compound 4 µM
  relative viability: 1.03
EPLC-272H; first compound 0.04 µM
  relative viability: 0.311
EPLC-272H; first compound 0.1265 µM
  relative viability: 0.371
EPLC-272H; first compound 0.4 µM
  relative viability: 0.313
EPLC-272H; first compound 4 µM
  relative viability: 0.269
NCI-H1793; first compound 0.04 µM
  relative viability: 0.98
NCI-H1793; first compound 0.1265 µM
  relative viability: 0.752
NCI-H1793; first compound 0.4 µM
  relative viability: 0.855
NCI-H1793; first compound 4 µM
  relative viability: 0.485
HCC-78; first compound 0.04 µM
  relative viability: 0.809
HCC-78; first compound 0.1265 µM
  relative viability: 0.84
HCC-78; first compound 0.4 µM
  relative viability: 0.889
HCC-78; first compound 4 µM
  relative viability: 0.917
LC-2-ad; first compound 0.04 µM
  relative viability: 0.272
LC-2-ad; first compound 0.1265 µM
  relative viability: 0.248
LC-2-ad; first compound 0.4 µM
  relative viability: 0.291
LC-2-ad; first compound 4 µM
  relative viability: 0.249
NCI-H1755; first compound 0.04 µM
  relative viability: 0.401
NCI-H1755; first compound 0.1265 µM
  relative viability: 0.507
NCI-H1755; first compound 0.4 µM
  relative viability: 0.453
NCI-H1755; first compound 4 µM
  relative viability: 0.47
NCI-H1944; first compound 0.1265 µM
  relative viability: 0.819
NCI-H1944; first compound 0.4 µM
  relative viability: 0.642
NCI-H1944; first compound 4 µM
  relative viability: 0.616
NCI-H460; first compound 0.04 µM
  relative viability: 0.0638
NCI-H460; first compound 0.1265 µM
  relative viability: 0.0634
NCI-H460; first compound 0.4 µM
  relative viability: 0.0696
NCI-H460; first compound 4 µM
  relative viability: 0.0616
UMC-11; first compound 0.04 µM
  relative viability: 0.757
UMC-11; first compound 0.1265 µM
  relative viability: 0.764
UMC-11; first compound 0.4 µM
  relative viability: 0.767
UMC-11; first compound 4 µM
  relative viability: 0.674
HCC-366; first compound 0.04 µM
  relative viability: 0.151
HCC-366; first compound 0.1265 µM
  relative viability: 0.162
HCC-366; first compound 0.4 µM
  relative viability: 0.212
HCC-366; first compound 4 µM
  relative viability: 0.152
NCI-H2170; first compound 0.04 µM
  relative viability: 0.266
NCI-H2170; first compound 0.1265 µM
  relative viability: 0.286
NCI-H2170; first compound 0.4 µM
  relative viability: 0.259
NCI-H2170; first compound 4 µM
  relative viability: 0.26
PC-3 [JPC-3]; first compound 0.04 µM
  relative viability: 1.04
PC-3 [JPC-3]; first compound 0.1265 µM
  relative viability: 1.09
PC-3 [JPC-3]; first compound 0.4 µM
  relative viability: 1.21
PC-3 [JPC-3]; first compound 4 µM
  relative viability: 0.943
NCI-H1395; first compound 0.1265 µM
  relative viability: 0.833
NCI-H1395; first compound 0.4 µM
  relative viability: 0.749
NCI-H1395; first compound 4 µM
  relative viability: 1.08
NCI-H1651; first compound 0.04 µM
  relative viability: 0.549
NCI-H1651; first compound 0.1265 µM
  relative viability: 0.565
NCI-H1651; first compound 0.4 µM
  relative viability: 0.569
NCI-H1651; first compound 4 µM
  relative viability: 0.52
